Results taken from paper PMC11312998, “Molecular Pro-Apoptotic Activities of Flavanone Derivatives in Cyclodextrin Complexes: New Implications for Anticancer Therapy” (International Journal of Molecular Sciences, 2024).

Legend:
[1] = tested on: extrinsic coagulation pathway; assay: Prothrombin time (PT); type: biochemical, human; conditions: 1–100 µmol/L
Protocol: Basic coagulation parameters were determined using Bio-Ksel reagents (Grudziądz, Poland): APTT reagent, calcium chloride, Bio-Ksel PT plus reagent (tromboplastin and solvent) and thrombin (3.0 UNIH/mL) for TT experiments. The methods were calibrated and the coefficient of variation (PT, APTT, TT experiments) was calculated using a calibrator (Bio-Ksel, Grudziadz, Poland), normal plasma (Bio-Ksel, Grudziądz, Poland) and water for injection (Polpharma, Gdańsk, Poland).
Control samples consisting of distilled water and methanol were tested. All methods were validated using Bio-Ksel normal plasma, which was dissolved in water for injection (Polpharma, Gdańsk, Poland). The reference values for each test are as follows: PT: 9.7–13.8 s; INR: 0.9–1.2; APTT: 28.2–42.3 s; TT: 11.0–16.5 s for 3.0 UNIH/mL of thrombin.

[2] = tested on: RBCs; assay: Red blood cells lysis assay; type: cell-based, human; conditions: 24 h
Protocol: The experiments on human blood were performed in accordance with Polish national guidelines, and the study protocols were approved by the Bioethics Committee of the Medical University of Lodz, Poland: approval no (RNN/104/20/KE). The blood samples were obtained from healthy donors at the Blood Donation Centre in Lodz. The procedure for […] for erythrotoxicity studies is given in a previous paper. The influence of the synthesized compounds, together with a reference compound on RBC membrane integrity, was performed by lysis assay, described elsewhere. Briefly, 2% RBC suspension in 0.9% NaCl was incubated at 37 °C for 24 h with the tested compounds at concentrations of 100 µmol/L, 50 µmol/L, 25 µmol/L, 10 µmol/L and 1 µmol/L. The samples were centrifuged at 3000 rpm for 10 min, and the absorbance of the supernatant was measured at 550 nm. […] A sample containing saline solution represented the spontaneous hemolysis of RBCs (control). The experiments were conducted using at least three different biological materials (n = 3). […] Additionally, erythrocyte morphology was evaluated using a phase contrast Opta-Tech inverted microscope at 400× magnification.

[3] = tested on: Ishikawa; assay: Superoxide anion generation, DHE probe; type: cell-based, human; conditions: IC50 concentration, 24 h
Protocol: (§1) The level of superoxide anion (O2^•−) was determined by microplate spectrofluorimetry with dihydroethidium (hydroethidine, DHE) (Life Technologies, Carlsbad, CA, USA), which is the most commonly used fluorogenic probe for monitoring the intracellular production of superoxide anion O2^•− [41]. […] Thanks to this shift, DHE can be used as a sensitive probe for cellular ROS. The reaction between superoxide and DHE generates a highly specific red fluorescent product, 2-hydroxyethidium (2-OH-E^+).
(§2) The cells were seeded in black 96-well fluorometric microplates at a density of 10 × 10^3 cells per well. […] After incubation, the medium was removed, the cell monolayer in the wells was washed twice with HBSS (140 mM NaCl, 5 mM KCl, 0.8 mM MgCl2, 1.8 mM CaCl2, 1 mM Na2HPO4, 10 mM HEPES and 1% glucose) and 50 μL of DHE solution in HBSS was added to each well (final probe concentration 5 μmol/L). Cells were incubated with the probe for 30 min in the dark in an incubator (37 °C), and then fluorescence was measured. The measurement was performed at the following excitation and fluorescence emission wavelengths: λex = 498 nm/λem = 582 nm. Fluorescence measurements were made on a Perkin-Elmer LS-5B spectrofluorometer (MA, USA). Fluorescence intensity values for control cells were arbitrarily set as 100%. The results are presented as percentages of control cell values, calculated relative to the fluorescence intensity of the controls (100%): sample fluorescence was calculated as Δf in relation to the controls.

[4] = tested on: MCF-7; assay: Superoxide anion generation, DHE probe; type: cell-based, human; conditions: IC50 concentration, 24 h
Protocol: as §1, §2

[5] = Isothermal titration calorimetry (ITC) of inclusion complex formation; type: physicochemical; conditions: DMSO, 25 °C
Protocol: Measurements were carried out using a MicroCal VP-ITC100 microcalorimeter equipped with a 1400 μL measurement cell. All titrations were carried out under isothermal conditions at 25 degrees C in DMSO solution, which was used as a solvent. The mixing speed during the measurements was 351 rpm. The 0.2 mM solution of the ligand (3, 3a and 5) located in the measurement cell was titrated with the cyclodextrin solution located in the syringe. Each measurement consisted of 50 injections of cyclodextrin with a volume of 5 uL and a concentration of 5 mM. The interval between individual injections was 300 s. The effect of direct interaction of the ligand with CD was calculated by subtracting the thermal effects of diluting 5 mM cyclodextrin in a pure solvent. The dilution effect of the 0.2 mM ligand solution was negligible. The results obtained were processed in the MicroCall Origin 7 software. Using a single active site model (ITC Tutorial Guide), the stability constant K of the resulting complex, its stoichiometry n and thermodynamic parameters that describe the ongoing process were determined, viz., enthalpy (ΔH), Gibbs free energy (ΔG) and entropy (ΔS).

[6] = concentration range of 1–25 µmol/L
[7] = concentrations of 50 µmol/L and 100 µmol/L

Row | prothrombin time (PT), difference compared to controls (in words) [1] | K (formation constant) ([5]; HP-β-cyclodextrin) | n (stoichiometry) ([5]; HP-β-cyclodextrin) | ΔG ([5]; HP-β-cyclodextrin) | ΔH ([5]; HP-β-cyclodextrin) | ΔS ([5]; HP-β-cyclodextrin) | K (formation constant) ([5]; α-cyclodextrin) | n (stoichiometry) ([5]; α-cyclodextrin) | ΔG ([5]; α-cyclodextrin) | ΔH ([5]; α-cyclodextrin) | ΔS ([5]; α-cyclodextrin) | K (formation constant) ([5]; β-cyclodextrin) | n (stoichiometry) ([5]; β-cyclodextrin) | ΔG ([5]; β-cyclodextrin) | ΔH ([5]; β-cyclodextrin) | ΔS ([5]; β-cyclodextrin) | SMILES | impact on % hemolysis (in words) [2, 6] | impact on % hemolysis (in words) [2, 7] | greater superoxide anion level relative to control (DHE probe) [3] | greater superoxide anion level relative to control (DHE probe) [4]
1 | No statistically significant differences | 6.88 × 10^3 ± 430 | 1.03 ± 0.10 | −21,902.2 J mol^−1 | -0.983 ± 0.08 kJ/mol | 70.2 J mol^−1K^−1 | 2.30 × 10^3 ± 180 | 0.90 ± 0.13 | −19,188.6 J mol^−1 | -0.385 ± 0.046 kJ/mol | 63.1 J mol^−1K^−1 | 3.68 × 10^3 ± 230 | 0.99 ± 0.11 | −20,353.7 J mol^−1 | -1.036 ± 0.088 kJ/mol | 64.8 J mol^−1K^−1 | COc1cccc(/C=C2/C(=O)c3ccccc3OC2c2ccccc2)c1 (stereo not drawn) [Compound 3] | did not show a statistically significant impact | statistically significant increase in % hemolysis | approximately 20% | approximately 20%
2 | No statistically significant differences | 5.12 × 10^3 ± 410 | 0.93 ± 0.10 | −21,172.4 J mol^−1 | -0.496 ± 0.063 kJ/mol | 69.3 J mol^−1K^−1 | 1.39 × 10^3 ± 120 | 0.83 ± 0.17 | −17,940.2 J mol^−1 | -0.205 ± 0.031 kJ/mol | 59.5 J mol^−1K^−1 | 2.32 × 10^3 ± 220 | 0.93 ± 0.11 |  | -0.172 ± 0.05 kJ/mol | 62.5 J mol^−1K^−1 | O=C1/C(=C/c2ccccc2)C(c2ccccc2)Oc2ccccc21 (stereo not drawn) [Compound 5] | did not show a statistically significant impact | statistically significant increase in % hemolysis | ~30% | ~30%
